# Assay results from patent US20210114983A1, “Cathepsin C inhibitors” (National Institute of Biological Sciences, Beijing, priority 2018, published 2021).
# Target: rhCatC (Cathepsin C) (Homo sapiens, UniProt P53634)
# Experiment: In Vitro CatC Enzyme Assay
# Assay type: biochemical
# Details: read-out: Cat C Enzy (Cathepsin C inhibitory activity, IC50)
# Method: In Vitro CatC Enzyme Assay
# The CatC enzyme assay was performed in black 384-well plate. Firstly, rhCatC (440 nM) was activated by rhCatL (300 nM) in activation buffer (25 mM MES, 5 mM DTT, pH 6.0) at room temperature for 2 h and then activated rhCatC was diluted to 4.4 nM in assay buffer (25 mM MES, 50 mM NaCl, 5 mM DTT, 0.01% (v/v) Triton X100, pH 6.0), 14 μL activated rhCatC and 1 μL compound in 10% DMSO or 10% DMSO were incubated at room temperature for 3 h, and 5 μL substrate (Gly-Phe-AFC) was added to final concentration of 100 μM. After 60 min reaction, the product of the reaction was measured in the Enspire plate reader using Ex λ400 nm and Em λ505 nm for AFC. A standard irreversible CatC inhibitor 10 by AstraZeneca (J. Med. Chem. 2014, 57, 2357-2367) was used as an inhibitor control in the assay.
# rhCatC (Cathepsin C), sequence (P53634 25-134 limits assumed): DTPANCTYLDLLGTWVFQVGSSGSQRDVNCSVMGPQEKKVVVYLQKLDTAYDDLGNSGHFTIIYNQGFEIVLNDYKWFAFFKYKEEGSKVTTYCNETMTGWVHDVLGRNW
# rhCatC (Cathepsin C), sequence (P53634 231-394 limits assumed): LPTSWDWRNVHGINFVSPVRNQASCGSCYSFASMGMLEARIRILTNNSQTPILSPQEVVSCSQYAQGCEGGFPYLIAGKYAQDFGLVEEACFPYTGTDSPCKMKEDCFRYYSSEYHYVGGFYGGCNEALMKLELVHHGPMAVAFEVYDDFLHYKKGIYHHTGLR
# rhCatC (Cathepsin C), sequence (P53634 395-463 limits assumed): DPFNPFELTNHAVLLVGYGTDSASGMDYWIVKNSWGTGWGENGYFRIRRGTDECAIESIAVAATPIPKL
row,Compound,IC50 [nM]
1,"C=CC(=O)Nc1cc(Oc2nc(Nc3ccc(N4CCN(C)CC4)nc3OC)ccc2N2CCCCC2)ccc1C [Compound 35, N-(5-((6-((2-methoxy-6-(4-methylpiperazin-1-yl)pyridin-3-yl)amino)-3-(piperidin-1-yl)pyridin-2-yl)oxy)-2-methylphenyl)acrylamide]",3 to 300
2,"C=CC(=O)Nc1cc(Oc2nc(Nc3ccc(N4CCN(C)CC4)cc3OC)ccc2N2CCCC2)ccc1OC [Compound 39, N-(2-methoxy-5-((6-((2-methoxy-4-(4-methylpiperazin-1-yl)phenyl)amino)-3-(pyrrolidin-1-yl)pyridin-2-yl)oxy)phenyl)acrylamide]",3 to 300
3,"C=CC(=O)Nc1cc(Oc2cccc(Nc3ccc(N4CCN(C)CC4)cc3OC)n2)ccc1OC [Compound 40, N-(2-methoxy-5-((6-((2-methoxy-4-(4-methylpiperazin-1-yl)phenyl)amino)pyridin-2-yl)oxy)phenyl)acrylamide]",300 to 30000
4,"C=CC(=O)Nc1ccc(C)c(Oc2nc(Nc3ccc(N4CCN(C)CC4)cc3OC)ccc2N2CCCC2)c1 [Compound 42, N-(3-((6-((2-methoxy-4-(4-methylpiperazin-1-yl)phenyl)amino)-3-(pyrrolidin-1-yl)pyridin-2-yl)oxy)-4-methylphenyl)acrylamide]",300 to 30000
5,"CC#CC(=O)Nc1cc(Oc2nc(Nc3ccc(N4CCN(C)CC4)cc3OC)ccc2N2CCCCC2)ccc1C [Compound 47, N-(5-((6-((2-methoxy-4-(4-methylpiperazin-1-yl)phenyl)amino)-3-(piperidin-1-yl)pyridin-2-yl)oxy)-2-methylphenyl)but-2-ynamide]",300 to 30000
6,"C#CC(=O)Nc1cc(Oc2nc(Nc3ccc(N4CCN(C)CC4)cc3OC)ccc2N2CCCCC2)ccc1C [Compound 48, N-(5-((6-((2-methoxy-4-(4-methylpiperazin-1-yl)phenyl)amino)-3-(piperidin-1-yl)pyridin-2-yl)oxy)-2-methylphenyl)propiolamide]",3 to 300
7,"C=C(F)C(=O)Nc1cc(Oc2nc(Nc3ccc(N4CCN(C)CC4)cc3OC)ccc2N2CCCCC2)ccc1C [Compound 49, 2-fluoro-N-(5-((6-((2-methoxy-4-(4-methylpiperazin-1-yl)phenyl)amino)-3-(piperidin-1-yl)pyridin-2-yl)oxy)-2-methylphenyl)acrylamide]",300 to 30000
8,"C=CC(=O)Nc1cc(Oc2nc(Nc3ccc(N4CCN(C)CC4)cc3OC)ccc2Cl)ccc1C(F)(F)F [Compound 50, N-(5-((3-chloro-6-((2-methoxy-4-(4-methylpiperazin-1-yl)phenyl)amino)pyridin-2-yl)oxy)-2-(trifluoromethyl)phenyl)acrylamide]",3 to 300
9,"C=CC(=O)Nc1cccc(Oc2nc(Nc3ccc(N4CCN(C)CC4)cc3OC)ccc2N2CCCCC2)c1 [Compound 52, N-(3-((6-((2-methoxy-4-(4-methylpiperazin-1-yl)phenyl)amino)-3-(piperidin-1-yl)pyridin-2-yl)oxy)phenyl)acrylamide]",3 to 300
10,"C=CC(=O)Nc1cccc(Oc2nc(Nc3ccc(N4CCN(C)CC4)cc3OC)ccc2N2CCCCCC2)c1 [Compound 53, N-(3-((3-(azepan-1-yl)-6-((2-methoxy-4-(4-methylpiperazin-1-yl)phenyl)amino)pyridin-2-yl)oxy)phenyl)acrylamide]",3 to 300
11,C=CC(=O)Nc1cc(Oc2nc(Nc3ccc(N4CCC(N(C)C)CC4)cn3)ccc2N2CCCCC2)ccc1C [Compound 55],300 to 30000

# Now from value to molecule:
row,IC50 [nM],Compound
1,3 to 300,"C=CC(=O)Nc1cc(Oc2nc(Nc3ccc(N4CCN(C(C)=O)CC4)cc3OC)ccc2N2CCCCC2)ccc1C [Compound 36, N-(5-((6-((4-(4-acetylpiperazin-1-yl)-2-methoxyphenyl)amino)-3-(piperidin-1-yl)pyridin-2-yl)oxy)-2-methylphenyl)acrylamide]"
2,3 to 300,"C=CC(=O)Nc1cc(Oc2nc(Nc3ccc(N4CCC(N(C)C)CC4)cc3OC)ccc2N2CCCCC2)ccc1C [Compound 37, N-(5-((6-((4-(4-(dimethylamino)piperidin-1-yl)-2-methoxyphenyl)amino)-3-(piperidin-1-yl)pyridin-2-yl)oxy)-2-methylphenyl)acrylamide]"
3,3 to 300,"C=CC(=O)Nc1cc(Oc2nc(Nc3ccc(N4CCN(C)CC4)cc3)ccc2N2CCCCC2)ccc1C [Compound 38, N-(2-methyl-5-((6-((4-(4-methylpiperazin-1-yl)phenyl)amino)-3-(piperidin-1-yl)pyridin-2-yl)oxy)phenyl)acrylamide]"
4,300 to 30000,"C=CC(=O)Nc1cccc(Oc2nc(Nc3ccc(N4CCN(C)CC4)cc3OC)ccc2N2CCCC2)c1C [Compound 41, N-(3-((6-((2-methoxy-4-(4-methylpiperazin-1-yl)phenyl)amino)-3-(pyrrolidin-1-yl)pyridin-2-yl)oxy)-2-methylphenyl)acrylamide]"
5,3 to 300,"C=CC(=O)Nc1cc(Oc2cccc(Nc3ccc(N4CCN(C)CC4)cc3OC)n2)ccc1C [Compound 43, N-(5-((6-((2-methoxy-4-(4-methylpiperazin-1-yl)phenyl)amino)pyridin-2-yl)oxy)-2-methylphenyl)acrylamide]"
6,3 to 300,"C=CC(=O)Nc1cc(Oc2nc(Nc3ccc(N4CCN(C)CC4)cc3OC)ccc2N2CCCC2)ccc1C(F)(F)F [Compound 44, N-(5-((6-((2-methoxy-4-(4-methylpiperazin-1-yl)phenyl)amino)-3-(pyrrolidin-1-yl)pyridin-2-yl)oxy)-2-(trifluoromethyl)phenyl)acrylamide]"
7,3 to 300,C=CC(=O)Nc1cc(Oc2nc(Nc3ccc(N4CCN(C)CC4)cc3OC)ccc2N2CCCCC2)ccc1C(F)(F)F [Compound 45]
8,300 to 30000,"COc1cc(N2CCN(C)CC2)ccc1Nc1ccc(N2CCCCC2)c(Oc2ccc(C)c(NC(=O)C=C(C)C)c2)n1 [Compound 46, N-(5-((6-((2-methoxy-4-(4-methylpiperazin-1-yl)phenyl)amino)-3-(piperidin-1-yl)pyridin-2-yl)oxy)-2-methylphenyl)-3-methylbut-2-enamide]"
9,3 to 300,"C=CC(=O)Nc1cc(Oc2cccc(Nc3ccc(N4CCN(C)CC4)cc3OC)n2)ccc1C(F)(F)F [Compound 51, N-(5-((6-((2-methoxy-4-(4-methylpiperazin-1-yl)phenyl)amino)pyridin-2-yl)oxy)-2-(trifluoromethyl)phenyl)acrylamide]"
10,3 to 300,C=CC(=O)Nc1cc(Oc2nc(Nc3ccc(N4CCNCC4)cc3OC)ccc2N2CCCCC2)ccc1C [Compound 54]
11,3 to 300,C#CCN1CCN(c2ccc(Nc3ccc(N4CCCCC4)c(Oc4ccc(C)c(NC(=O)C=C)c4)n3)c(OC)c2)CC1 [Compound 56]
